This note sets out measurements from patent publication US8940863B2, “Selective anticancer chimeric peptides which bind neuropilin receptor” (Stella Pharma Corporation, priority 2008, dated 2015).

Where two headings read alike, the source gives them in different places. Non-standard residues stand in square brackets, D forms with d. Residues, ends and D or L forms follow the SMILES beside them. No end group written: not given here.

Series [1] deals with recombinant human EGF receptor (rhEGFR) (Homo sapiens, UniProt P00533). In words: BIACORE binding to EGFR protein. The method, then:
Surface plasmon resonance (SPR) experiments were performed with a BIACORE biosensor system 3000 (BIACORE Inc., Uppsala, Sweden). About 5000 RU of streptavidin (Sigma) was immobilized on the surface of CM5 sensor chips via N-hydroxysuccinimide and N-ethyl-N′-(dimethylaminopropyl) carbodiimide activation chemistry, and then 2000-3000 RU of peptide conjugated with biotin were injected over the streptavidin-immobilized sensor chip. As a control of nonspecific binding, the unreacted carboxymethyl groups of a sensor chip without immobilized streptavidin were blocked with ethanolamine. As an analyte, cell surface proteins which were prepared using the Mem-PER eukaryotic membrane protein extraction reagent kit (Pierce) were injected over the flow-cell in the flow rate of […]. at 25° C. […] All protein concentrations used in these experiments were determined by the Bradford method (Bradford M M. A rapid and sensitive method for the quantitation of microgram quantities of protein utilizing the principle of protein-dye binding. Anal Biochem 1976; 72:248-54). […]
Among the aforementioned mutated peptides, first, paying attention to the second H which has charge, K- and R-mutants were chemically synthesized. As described in Example 1, using BIACORE, binding affinity with recombinant human EGFR was evaluated by comparison with that of wild-type EGFR-binding peptide. […]
Background: Surface plasmon resonance follows binding to a sensor surface in real time, without labels.

A further series relates to SK-BR-3. The following applies: SKBR3; 72 hours.
Another series deals with SU.86.86. The following applies: for IC50: 48 h.
Series [2] relates to HC cell (hepatocyte cell). In words: Cell viability assay (WST-8). The class given is cell-based, human. The following applies: Human normal hepatocyte cell; 48 hours (Table 8); read-out: IC50. An excerpt: (§1) Correlation between IC50 values was observed.
(Tetrazolium assays rely on reduction of a dye to a coloured formazan, in cell work by metabolically active cells.)

The subject of series [3] is PE cell (pancreatic epidermal). In words: Cell viability assay (WST-8). The format is cell-based. The following applies: read-out: IC50.
Excerpt: as §1

Another series concerns MRC-5. In words: Cell viability assay (WST-8).
The next series relates to SU8686. In words: Annexin V flow cytometry. The class given is cell-based, human. The following applies: 10 μM, three hours at 37° C. Here is the method: SU8686 cells were incubated with Sema3A (363-377)-kLytic peptide (10 μM) for three hours at 37° C., and were analyzed for Annexin V labeling by dual-color flow cytometry.
In general terms: In flow cytometry, cells or beads pass a laser one at a time.

The next series has as its system H322. As to conditions: H322; 72 hours.
A further series concerns KCCT873. In words: Cell viability assay (WST-8). The format is cell-based. As to conditions: 72 h.
For a further series, the system named is U251. As to conditions: 72 h.
The next series has as its system A172. In words: Cell viability assay (WST-8). The following applies: 72 h. The format is cell-based.
In the next series the test system is HEK293T. The format is cell-based. As to conditions: 72 h.
For the next series, the system named is WI-38. The following applies: 72 h.
A further series relates to T47D. In words: Cell viability assay (WST-8). As to conditions: T47D breast cancer cells; 48 hours (Table 6); read-out: IC50. The format is cell-based, human.
Excerpt: as §1

For a further series, the system named is BT-20. As to conditions: BT20 breast cancer cells; 48 hours (Table 6).

One may read the IC50 as the concentration that inhibits the measured activity by half.

For the compound “YRWYGYTPQNVI (EGFR binding peptide) [R-substituted peptide]”, the “biosensor response compared with wild-type EGFR-binding peptide” value in [1] was “response of two fold of wild-type”.
With “NYQWVPYQGRVPYPRGGGKLLLKLLKKLLKLLKKK (Sema3A-lyticL chimeric peptide)”, the “cell-killing effect compared with LyticL alone” value is “cell-killing effect was enhanced” with SK-BR-3 and “cell-killing effect was enhanced” in the series with SU.86.86 (SU86.86, 72 hours).
Consider `CC(C)C[C@H](NC(=O)[C@H](CC(C)C)NC(=O)[C@@H](CCCCN)NC(=O)[C@@H](CCCCN)NC(=O)[C@H](CC(C)C)NC(=O)[C@@H](CC(C)C)NC(=O)[C@H](CCCCN)NC(=O)[C@H](CC(C)C)NC(=O)[C@@H](CC(C)C)NC(=O)[C@H](CC(C)C)NC(=O)[C@H](CCCCN)NC(=O)CNC(=O)CNC(=O)CNC(=O)[C@H](CCCNC(=N)N)NC(=O)[C@@H]1CCCN1C(=O)[C@H](Cc1ccc(O)cc1)NC(=O)[C@@H]1CCCN1C(=O)[C@@H](NC(=O)[C@H](CCCNC(=N)N)NC(=O)CNC(=O)[C@H](CCC(N)=O)NC(=O)[C@H](Cc1ccc(O)cc1)NC(=O)[C@@H]1CCCN1C(=O)[C@@H](NC(=O)[C@H](Cc1c[nH]c2ccccc12)NC(=O)[C@H](CCC(N)=O)NC(=O)[C@H](Cc1ccc(O)cc1)NC(=O)[C@@H](N)CC(N)=O)C(C)C)C(C)C)C(=O)N[C@@H](CCCCN)C(=O)N[C@H](CC(C)C)C(=O)N[C@@H](CC(C)C)C(=O)N[C@@H](CCCCN)C(=O)N[C@@H](CCCCN)C(=O)N[C@@H](CCCCN)C(=O)O` [Sema3A(aa363-377)-kLytic] (H-NYQWVPYQGRVPYPRGGGKL[dL]LK[dL]L[dK][dK]LLK[dL]LKKK-OH; N-terminus and C-terminus assumed), for which the IC50 is 37.5 µM in series [2]; greater than 20 µM in [3] (Pancreatic epidermal cell, normal cells, 48 hours (Table 8)); 6.7 ± 0.1 µM in the series with CFPAC-1 (48 h); 5.7 ± 2.3 µM in the series on BxPC-3 (48 h); 5.2 ± 0.4 µM with SU.86.86; greater than 50 µM with MRC-5 (MRC-5 normal cells, 48 hours (Table 8)). In the series with Panc-1 (48 h), this compound showed an IC50 of 13 ± 2.7 µM. The “Annexin V-positive dead cells” value is reported as “increased” with SU8686 (listed as Sema3A (363-377)-kLytic) and “induces Annexin V-positive expression” in the series with SU8686 (listed as Sema3A(363-377)-kLytic).
Turning to “YHWYGYTPQNVIGGGLKLLKKLLKKLLKLL-NH2 (YHWYGYTPQNVIGGGLK[dL]LK[dK]L[dL][dK]KLL[dK]LL-NH2; N-terminus assumed; SMILES CC[C@H](C)[C@H](NC(=O)[C@@H](NC(=O)[C@H](CC(N)=O)NC(=O)[C@H](CCC(N)=O)NC(=O)[C@@H]1CCCN1C(=O)[C@@H](NC(=O)[C@H](Cc1ccc(O)cc1)NC(=O)CNC(=O)[C@H](Cc1ccc(O)cc1)NC(=O)[C@H](Cc1c[nH]c2ccccc12)NC(=O)[C@H](Cc1c[nH]cn1)NC(=O)[C@@H](N)Cc1ccc(O)cc1)[C@@H](C)O)C(C)C)C(=O)NCC(=O)NCC(=O)NCC(=O)N[C@@H](CC(C)C)C(=O)N[C@@H](CCCCN)C(=O)N[C@H](CC(C)C)C(=O)N[C@@H](CC(C)C)C(=O)N[C@@H](CCCCN)C(=O)N[C@H](CCCCN)C(=O)N[C@@H](CC(C)C)C(=O)N[C@H](CC(C)C)C(=O)N[C@H](CCCCN)C(=O)N[C@@H](CCCCN)C(=O)N[C@@H](CC(C)C)C(=O)N[C@@H](CC(C)C)C(=O)N[C@H](CCCCN)C(=O)N[C@@H](CC(C)C)C(=O)N[C@@H](CC(C)C)C(N)=O) [EB-original lytic peptide]”, the “cell-killing effect of chimeric peptide compared with lytic moiety alone” value in the series on H322 is reported as “did not show enhancement of cytotoxic activity”.
`CC[C@H](C)[C@H](NC(=O)[C@H](CC(C)C)NC(=O)[C@H](CCC(N)=O)NC(=O)[C@@H](N)CCCCN)C(=O)N[C@@H](CCCNC(=N)N)C(=O)N[C@@H](Cc1ccccc1)C(=O)N[C@@H](CC(C)C)C(=O)N[C@@H](CCCCN)C(=O)N[C@@H](CCCNC(=N)N)C(=O)N[C@@H](CC(C)C)C(=O)N[C@@H](CC(=O)O)C(=O)N[C@@H](CCCNC(=N)N)C(=O)N[C@@H](CC(N)=O)C(=O)NCC(=O)NCC(=O)NCC(=O)N[C@@H](CCCCN)C(=O)N[C@@H](CC(C)C)C(=O)N[C@H](CC(C)C)C(=O)N[C@@H](CC(C)C)C(=O)N[C@@H](CCCCN)C(=O)N[C@H](CC(C)C)C(=O)N[C@@H](CC(C)C)C(=O)N[C@H](CCCCN)C(=O)N[C@H](CCCCN)C(=O)N[C@@H](CC(C)C)C(=O)N[C@@H](CC(C)C)C(=O)N[C@@H](CCCCN)C(=O)N[C@H](CC(C)C)C(=O)N[C@@H](CC(C)C)C(=O)N[C@@H](CCCCN)C(=O)N[C@@H](CCCCN)C(=O)N[C@@H](CCCCN)C(=O)O` [IL4-lytic (L, D)] (H-KQLIRFLKRLDRNGGGKL[dL]LK[dL]L[dK][dK]LLK[dL]LKKK-OH; N-terminus and C-terminus assumed): the 50% inhibitory concentration (IC50) with KCCT873 was 5.9 ± 0.6 µM; in the series on U251, 6.6 ± 0.4 µM; with A172, 6.8 ± 0.4 µM; in [3] (PE normal cells, 72 hours, Mean ± SD (Table 4)), greater than 20 µM; in the series on HEK293T, 14.2 ± 1.3 µM; with WI-38, 16.1 ± 0.5 µM. Further, the IC50 in the series with BxPC-3 (72 h) came to 6.8 ± 0.3 µM; in the series on MDA-MB-231 (72 h) it was 5.7 ± 0.4 µM.
For `CC(C)C[C@H](NC(=O)[C@H](CCCCN)NC(=O)[C@@H](CC(C)C)NC(=O)[C@H](CC(C)C)NC(=O)[C@H](CCCCN)NC(=O)[C@H](CCCCN)NC(=O)[C@H](CC(C)C)NC(=O)[C@@H](CC(C)C)NC(=O)[C@@H](CCCCN)NC(=O)[C@H](CCCCN)NC(=O)[C@H](CC(C)C)NC(=O)[C@H](CC(C)C)NC(=O)[C@@H](CCCCN)NC(=O)[C@H](CC(C)C)NC(=O)[C@@H](N)CC(C)C)C(=O)O` [nLytic, LLKLLKKLLKKLLKL] (H-LL[dK]LLK[dK][dL]LKKL[dL]KL-OH; N-terminus and C-terminus assumed), the half-inhibitory concentration (IC50) in the series on T47D was 12.5 µM; in [3] (Pancreatic epithelium normal cells, 48 hours (Table 5)) it was greater than 50 µM; with CFPAC-1 (CFPAC-1 cancer cells, 48 hours (Table 5)), 22.6 µM; in the series on BxPC-3 (48 h) it was 38.5 µM; with SU.86.86 it was 19.5 µM; in the series with MDA-MB-231 (48 h), 29.6 µM. Moreover, the IC50 stood at 28.2 µM in the series on Panc-1 (Panc-1 cancer cells, 48 hours (Table 5)) and 38 µM with BT-20.
Turning to “YKWYGYTPQNVI (EGFR binding peptide) [K-substituted peptide]”, the “biosensor response compared with wild-type EGFR-binding peptide” value in series [1] was “some enhancement of biosensor response”.
In the case of “YHWYGYTPQNVIGGGLKLLKKLLKKLLKLL-NH2 (C-terminal amide; EB-original Lytic peptide; position 18, 21, 23, 24 and 28 are D-amino acids, and -CONH2 is existing at C-terminal.)”, the “cytotoxicity to normal cell line MRC-5” value in the series on MRC-5 (MRC-5, 72 hours) was “killed even normal cell line (MRC-5) at lower concentration”.
